Source: US20040082479A1, “Method for soil sterilization from pathogens” (priority 2001, published 2004)

Key:
[1] = tested on: Fusarium oxysporum f. sp. vasinfectum; assay: Linear (radial) growth of fungi in vitro on potato dextrose agar with allicin; assay type: cell-based; settings: PDA; for Linear growth, mm radius of growth: 0.1 ml allicin solution 2 mg/ml; for Effect on growth of the fungus (in words): in vitro
Description: (§1) Pure allicin in aqueous solution at 2 mg/ml was obtained as previously described in International PCT Publication WO 97/39115, following the interaction of synthetic, nature-identical alliin (allylcysteine sulfoxide) with a preparation of stabilized garlic alliinase. Fungal plant pathogens were grown in soil as previously described (Ko et al, 1971). Contamination of soil with Rhizoctonia solani and infection of bean seedlings was determined as previously reported (Chet, 1987).
(§2) The effect of allicin on the growth of a number of known soil fungal pathogens was examined in vitro. Fungi were innoculated in Petri dishes containing potato dextrose agar (PDA, Difco) and the radial growth rate of the fungi was measured every 24 hours. The effect of the addition of 0.1 ml of a solution of allicin (2.0 mg/ml) on the radial growth rate of the pathogen was determined after 24, 48, 72 and 96 hours.

Trichoderma hurzianum = assay: as above; assay type: cell-based; settings: PDA; for Linear growth, mm radius of growth: 0.1 ml allicin solution 2 mg/ml; for Effect on growth of the fungus (in words): in vitro
Description: as §1, §2

Sclerotinia sclerotiorum = assay: as above; assay type: cell-based; settings: PDA; for Linear growth, mm radius of growth: 0.1 ml allicin solution 2 mg/ml; for Effect on growth of the fungus (in words): in vitro
Description: as §1, §2

Sclerotium Rolfsii Sacc. = assay: as above; assay type: cell-based; settings: PDA; for Linear growth, mm radius of growth: 0.1 ml allicin solution 2 mg/ml; for Effect on growth of the fungus (in words): in vitro
Description: as §1, §2

Rhizoctonia solani Kuhn = assay: as above; assay type: cell-based; settings: PDA; for Linear growth, mm radius of growth: 0.1 ml allicin solution 2 mg/ml; for Effect on growth of the fungus (in words): in vitro
Description: as §1, §2

Rhizoctonia solani = assay: Diseased bean plants (Phaseolus vulgaris L.) grown in Rhizoctonia solani contaminated soil pre-treated with allicin; assay type: in vivo
Description: as §1
Boxes with raw red-brown, sandy loam soil (0.5 Kg) 1.0 were precontaminated with viable Rhizoctonia solani. The fungi-contaminated soil in the boxes were subsequently irrigated with aqueous solutions (30 ml/box) containing different concentrations of allicin (A: 0.31 mg allicin/ml; B: 0.62 mg allicin/ml; C: 0.94 mg allicin/ml; D: 1.25 mg allicin/ml). Irrigations were repeated 3 times, with 3 days intervals between treatments. Controls were irrigated with similar volumes of water. Four soil replicates were irrigated for each allicin concentration as well as for the control. Following each irrigation step, the soil boxes were closed in nylon bags. Four days after the last irrigation, the bags were opened and the boxes with the soil ventilated for 5 more days.
Bean seeds (Phaseolus vulgaris L.) (10/box) were then planted in each of the boxes and the growth and development of disease in the plants was determined after 14 days. As shown in Table 2 and FIGS. 1-2, black columns, 86% of the control plants became diseased whereas in soil pre-irrigated with 0.94 (FIGS. 1-2, C) and 1.25 (FIGS. 1-2, D) mg/ml allicin, less than 20% of the plants became diseased (decrease of >80% in diseased plants, FIG. 2). The effect of allicin was dose-dependent and at the lowest concentration tested (0.31 mg allicin/ml), the decrease in the number of diseased plants was only 14% (Table 2 and FIGS. 1-2, black columns).
In order to test the time length efficacy of soil that was pre-treated with allicin, an additional experiment was done in the same soil boxes. After the first cycle of the bean growth experiment for 14 days described above, the plants were removed and a second cycle of bean growth was conducted whereby a new set of bean seeds was immediately seeded in the same soil boxes and the development of disease in the plants grown in this second cycle was determined after 14 days. The results are shown in Table 2 and in FIGS. 1-2, gray columns. […] Some protection (33%) was also observed in soils irrigated with 0.94 mg allicin/ml (C).

## C=CCS[S+]([O-])CC=C (stereo not shown) [Allicin, thio-2-propene-1-sulfinic acid S-allyl ester]
[1]; 24 hrs
  Linear growth, mm radius of growth: 2.5 mm
[1]; 48 hrs
  Linear growth, mm radius of growth: 7.5 mm
[1]; 72 hrs
  Linear growth, mm radius of growth: 12.5 mm
[1]; 96 hrs
  Linear growth, mm radius of growth: 15 mm
[1]
  Effect on growth of the fungus (in words): Very significant inhibition of growth
Trichoderma hurzianum; 24 hrs
  Linear growth, mm radius of growth: 2.5 mm
Trichoderma hurzianum; 48 hrs
  Linear growth, mm radius of growth: 7.5 mm
Trichoderma hurzianum; 72 hrs
  Linear growth, mm radius of growth: 22.5 mm
Trichoderma hurzianum
  Effect on growth of the fungus (in words): Very significant inhibition of growth
Sclerotinia sclerotiorum; 24 hrs
  Linear growth, mm radius of growth: 0.5 mm
Sclerotinia sclerotiorum; 48 hrs
  Linear growth, mm radius of growth: 7.5 mm
Sclerotinia sclerotiorum; 72 hrs
  Linear growth, mm radius of growth: 20 mm
Sclerotinia sclerotiorum; 96 hrs
  Linear growth, mm radius of growth: 45 mm
Sclerotinia sclerotiorum
  Effect on growth of the fungus (in words): Very significant inhibition of growth
Sclerotium Rolfsii Sacc.; 24 hrs
  Linear growth, mm radius of growth: 0 mm
Sclerotium Rolfsii Sacc.; 48 hrs
  Linear growth, mm radius of growth: 2.5 mm
Sclerotium Rolfsii Sacc.; 72 hrs
  Linear growth, mm radius of growth: 15 mm
Sclerotium Rolfsii Sacc.
  Effect on growth of the fungus (in words): Very significant inhibition of growth
Rhizoctonia solani Kuhn; 24 hrs
  Linear growth, mm radius of growth: 2.5 mm
Rhizoctonia solani Kuhn; 48 hrs
  Linear growth, mm radius of growth: 7.5 mm
Rhizoctonia solani Kuhn; 72 hrs
  Linear growth, mm radius of growth: 15 mm
Rhizoctonia solani Kuhn
  Effect on growth of the fungus (in words): Very significant inhibition of growth
Rhizoctonia solani; First Cycle (14 days after planting), treatment A: 0.31 mg allicin/ml (30 ml), 3 irrigations, 0.5 Kg soil
  Diseased Plants (%): 74%
Rhizoctonia solani; First Cycle (14 days after planting), treatment B: 0.62 mg allicin/ml (30 ml), 3 irrigations, 0.5 Kg soil
  Diseased Plants (%): 39%
Rhizoctonia solani; First Cycle (14 days after planting), treatment C: 0.94 mg allicin/ml (30 ml), 3 irrigations, 0.5 Kg soil
  Diseased Plants (%): 16%
Rhizoctonia solani; First Cycle (14 days after planting), treatment C: 0.94 mg allicin/ml (30 ml), 3 irrigations, 0.5 Kg soil, listed as allicin
  Diseased Plants (%): less than 20%
Rhizoctonia solani; First Cycle (14 days after planting), treatment D: 1.25 mg allicin/ml (30 ml), 3 irrigations, 0.5 Kg soil
  Diseased Plants (%): 18%
Rhizoctonia solani; First Cycle (14 days after planting), treatment D: 1.25 mg allicin/ml (30 ml), 3 irrigations, 0.5 Kg soil, listed as allicin
  Diseased Plants (%): less than 20%
Rhizoctonia solani; First Cycle, treatment A: 0.31 mg allicin/ml (30 ml)
  Diseased Reduction (%): 14%
Rhizoctonia solani; First Cycle, treatment B: 0.62 mg allicin/ml (30 ml)
  Diseased Reduction (%): 55%
Rhizoctonia solani; First Cycle, treatment C: 0.94 mg allicin/ml (30 ml)
  Diseased Reduction (%): 81%
Rhizoctonia solani; First Cycle, treatment C: 0.94 mg allicin/ml (30 ml), listed as allicin
  Diseased Reduction (%): > 80%
Rhizoctonia solani; First Cycle, treatment D: 1.25 mg allicin/ml (30 ml)
  Diseased Reduction (%): 90%
Rhizoctonia solani; First Cycle, treatment D: 1.25 mg allicin/ml (30 ml), listed as allicin
  Diseased Reduction (%): > 80%
Rhizoctonia solani; Second Cycle (14 days after replanting), treatment A: 0.31 mg allicin/ml (30 ml)
  Diseased Plants (%): 90%
Rhizoctonia solani; Second Cycle (14 days after replanting), treatment A: 0.31 mg allicin/ml (30 ml), listed as allicin
  Diseased Plants (%): almost identical to that of the controls
Rhizoctonia solani; Second Cycle (14 days after replanting), treatment B: 0.62 mg allicin/ml (30 ml)
  Diseased Plants (%): 80%
Rhizoctonia solani; Second Cycle (14 days after replanting), treatment B: 0.62 mg allicin/ml (30 ml), listed as allicin
  Diseased Plants (%): almost identical to that of the controls
Rhizoctonia solani; Second Cycle (14 days after replanting), treatment C: 0.94 mg allicin/ml (30 ml)
  Diseased Plants (%): 60%
Rhizoctonia solani; Second Cycle (14 days after replanting), treatment D: 1.25 mg allicin/ml (30 ml)
  Diseased Plants (%): 30%
Rhizoctonia solani; Second Cycle, treatment A: 0.31 mg allicin/ml (30 ml)
  Diseased Reduction (%): 0%
Rhizoctonia solani; Second Cycle, treatment B: 0.62 mg allicin/ml (30 ml)
  Diseased Reduction (%): 11%
Rhizoctonia solani; Second Cycle, treatment C: 0.94 mg allicin/ml (30 ml)
  Diseased Reduction (%): 33%
Rhizoctonia solani; Second Cycle, treatment D: 1.25 mg allicin/ml (30 ml)
  Diseased Reduction (%): 66%

## allylcysteine sulfoxide [alliin, reference compound]
[1]
  Effect on growth of the fungus (in words): no effect
Trichoderma hurzianum
  Effect on growth of the fungus (in words): no effect
Sclerotinia sclerotiorum
  Effect on growth of the fungus (in words): no effect
Sclerotium Rolfsii Sacc.
  Effect on growth of the fungus (in words): no effect
Rhizoctonia solani Kuhn
  Effect on growth of the fungus (in words): no effect
